From the NIST ThermoML archive (doi:10.1021/je9006037)

How the values were obtained:
[1] = 298.15 K; 101.33 kPa; Liquid
[2] = refractive index (Na D-line) (dimensionless); xn = mol fraction of the nth substance listed; conditions: 101 kPa, Liquid

CCn1cc[n+](C)c1.O=S(=O)([O-])C(F)(F)F [1-ethyl-3-methylimidazolium trifluoromethanesulfonate]
Conditions	mass density [kg/m3]
[1]	1383.58

CCn1cc[n+](C)c1.O=S(=O)([O-])C(F)(F)F [1-ethyl-3-methylimidazolium trifluoromethanesulfonate] + CCO
refractive index, [2]
Conditions	288.15 K	298.15 K	308.15 K	318.15 K	328.15 K
x1 = 0.05087	1.37603	1.37224	1.36847	1.3647	1.36088
x1 = 0.1004	1.38531	1.38169	1.37828	1.37496	1.37123
x1 = 0.1504	1.39279	1.38937	1.38635	1.38336	1.3795
x1 = 0.201	1.39891	1.39566	1.39241	1.38923	1.38584
x1 = 0.2991	1.40822	1.40549	1.40179	1.39872	1.39607
x1 = 0.3976	1.41506	1.41187	1.40885	1.40581	1.40267
x1 = 0.4976	1.42051	1.41741	1.41441	1.41137	1.40841
x1 = 0.5935	1.4247	1.42164	1.41857	1.41564	1.41275
x1 = 0.6981	1.42832	1.42536	1.42243	1.41956	1.41673
x1 = 0.7994	1.43116	1.42826	1.42543	1.42262	1.41981
x1 = 0.8407	1.4322	1.42937	1.42653	1.42372	1.42093
x1 = 0.892	1.43344	1.43061	1.42781	1.42501	1.42222
x1 = 0.9444	1.43452	1.43172	1.42894	1.42619	1.42346
x1 = 1	1.43599	1.43322	1.4304	1.42767	1.42494

CCn1cc[n+](C)c1.O=S(=O)([O-])C(F)(F)F [1-ethyl-3-methylimidazolium trifluoromethanesulfonate] + CO
refractive index, [2]
Conditions	288.15 K	298.15 K	308.15 K	318.15 K
x1 = 0.04981	1.35401	1.35019	1.34673	1.34425
x1 = 0.1006	1.37019	1.36654	1.3636	1.36131
x1 = 0.1503	1.38187	1.37846	1.37522	1.37261
x1 = 0.2002	1.39131	1.38786	1.38479	1.38175
x1 = 0.2516	1.39849	1.39527	1.39212	1.38903
x1 = 0.3018	1.40415	1.40103	1.3983	1.39535
x1 = 0.3977	1.41297	1.40987	1.40694	1.40394
x1 = 0.499	1.41931	1.4163	1.41325	1.41035
x1 = 0.5911	1.42382	1.42086	1.41783	1.41502
x1 = 0.7059	1.42818	1.42529	1.42236	1.41954
x1 = 0.8054	1.43127	1.42843	1.42553	1.42265
x1 = 0.8494	1.43236	1.42952	1.42665	1.42387
x1 = 0.9013	1.43359	1.4308	1.42799	1.42515
x1 = 1	1.43599	1.43322	1.4304	1.42767

CCO [ethanol]
Conditions	mass density [kg/m3]
[1]	785.1

CCO [ethanol] + CCn1cc[n+](C)c1.O=S(=O)([O-])C(F)(F)F
[2], x2 = 0
Conditions	refractive index
288.15 K	1.36358
298.15 K	1.3593
308.15 K	1.35503
318.15 K	1.35073
328.15 K	1.3463

CO [methanol]
Conditions	mass density [kg/m3]
[1]	786.49

CO [methanol] + CCn1cc[n+](C)c1.O=S(=O)([O-])C(F)(F)F
[2], x2 = 0
Conditions	refractive index
288.15 K	1.33071
298.15 K	1.32653
308.15 K	1.32237
318.15 K	1.3182

CCCO [propan-1-ol]
Conditions	mass density [kg/m3]
[1]	799.56

CCCO [propan-1-ol] + CCn1cc[n+](C)c1.O=S(=O)([O-])C(F)(F)F
[2], x2 = 0
Conditions	refractive index
288.15 K	1.38732
298.15 K	1.38318
308.15 K	1.37897
318.15 K	1.37471
328.15 K	1.37036
338.15 K	1.36587

CC(C)O [propan-2-ol]
Conditions	mass density [kg/m3]
[1]	780.89

CC(C)O [propan-2-ol] + CCn1cc[n+](C)c1.O=S(=O)([O-])C(F)(F)F
[2], x2 = 0
Conditions	refractive index
288.15 K	1.37924
298.15 K	1.37492
308.15 K	1.37048
318.15 K	1.36586
328.15 K	1.36103
338.15 K	1.35599
